Measurements taken from patent US20100055169A1, “CATIONIC LIPIDS AND USES THEREOF” (ABBOTT LABORATORIES, priority 2008, published 2010).

What was measured:
Format in all cases: physicochemical
[1] = Particle sizing by dynamic light scattering (DynaPro plate reader), in vitro formulations; details: in vitro formulation b: Cationic lipid/PEG-cholesterol/DSPC/Chol 45/10/15/30 wt %, lipid:siRNA 25:1
Protocol: The siRNA concentrations were measured using Quanti-iT RiboGreen RNA reagent (Molecular Probes, (R11490)). Vesicle sizes were characterized by dynamic light scattering with a DynaPro™ Plate Reader (Wyatt Technology) in 96-well half-area UV plate (Coring) after diluting the formulation sample (20 μL) in phosphate buffered saline (80 μL) at a pH of about 7-8. A 1% agarose gel-based assay was used for analyzing nuclease degradation and protection. Encapsulation efficiency (EE) was calculated using data obtained from a RiboGreen assay.
Particle sizes and size distributions (PDI) were characterized by using dynamic light scattering (DLS). A DLS plate reader (Dynapro™, Wyatt Technology) was used for the DLS measurement. This DLS plate reader uses an 830 nm laser and the scattering angle is 158°. It also can control temperature from 4° C. to 70° C. A 96-well format was employed for the samples.
Samples for DLS analysis were prepared by mixing 20 μL of each sample stock solution with 80 μL PBS directly in the 96-well plate (#3697, Corning). Sample mixing was accomplished using a microplate shaker (Orbis, Mikura Ltd.). Plates were read at 20° C. with an acquisition time of 50 seconds for each sample, and data was analyzed with Wyatt Technology's Dynamics V6 software. To rule out potential multiple scattering artifacts, a second plate at 4-fold reduced sample concentrations was independently prepared by mixing 5 μL stock solutions with 95 μL PBS. Under our experimental conditions the results at the two concentrations were very similar, and the final reported result for each sample represents the average of values obtained from the two plates.

[2] = RiboGreen assay of siRNA encapsulation efficiency, in vitro formulations of Lipid-Based Particles; details: in vitro formulation b: Cationic lipid/PEG-cholesterol/DSPC/Chol 45/10/15/30 wt %, lipid:siRNA 25:1
In short: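 siRNA in pH 4.0 citrate buffer (20 mM, 0.2 mg/mL) mixed at 60 °C with an ethanolic lipid blend (cationic lipid, cholesterol, non-cationic lipid, PEG-lipid), then diluted with PBS pH 7.4. Encapsulation efficiency from RiboGreen fluorescence (480/520 nm) with siRNA released by ethanol, Triton X-100 or phenol/chloroform.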

[3] = Particle sizing assay (Zetasizer Nano ZS), in vivo formulations; details: lipid:siRNA 25:1
Protocol: A round bottom flask was submerged into a 65° C. water bath. Citrate buffer (37.5 ml) of pH 4.0 was pipetted into the flask. The solution was stirred by a magnetic stirring bar at a speed of 900 rpm. Both the pH 4.0 citrate buffer and the lipid solution were pre-warmed in the 65° C. water bath for about 3 minutes. A siRNA solution (0.5 ml) was pipetted into the pH 4.0 citrate buffer. The 12.5 ml lipid mixture solution was injected through a 27 gauge needle into the citrate buffer in about 30 seconds. The needle tip was inserted into the solution during the injection. The resulting solution was stirred for 5 minutes at a speed of 900 rpm. The flask was pulled up from the water bath and a 50 ml pH 7.4 PBS buffer was added into the flask. The final solution was further mixed at a speed of 900 rpm for 5 minutes. For the diafiltration process, a dialysis filter (Millipore, 100K, Cat#PXB100C50) was used to remove ethanol in the above solution. When the volume was reduced to 20 ml during the initial diafiltration, 20 ml of pH 7.4 PBS was added to the sample solution. The diafiltration was continued until the volume was reduced to 20 ml. The diafiltration process was repeated 4 times. The volume of the sample solution was reduced to about 12 ml and pH 7.4 PBS was added to make the final volume of 15 ml. The 15 ml solution was filtered sequentially through the 0.45 and 0.22 μm sterile PVDF membrane filters (Millipore) and immediately transferred into a sterile vial.
For measurements of particle sizes and size distributions (PDI), lipid-based particles were prepared as described above. The particle solution (60 μL) was pipetted into a disposable cuvette (UVette, Eppendorf, cat#952010051) and measured in the “General Purpose” mode. Attenuator and position were optimized by the device. Measurements were performed using a Zetasizer Nano ZS (Malvern Instruments) equipped with a 4 mW He—Ne laser at a wavelength of 633 nm at 25° C. Scattered light was detected at a 173° backward scattering angle. The viscosity and refractive index of water at 25° C. was used for data analysis with the Dispersion Technology Software 5.00 (Malvern Instruments).

[4] = in vivo formulation A: Cationic lipid/Example 73/DSPC/Chol 45/10/15/30 wt %
[5] = in vivo formulation B: Cationic lipid/PEG-cholesterol/DSPC/Chol 45/10/15/30 wt %
[6] = in vivo formulation C: Cationic lipid/Pal-PEG-Cera/DSPC/Chol 45/10/15/30 wt %
[7] = in vivo formulation D: Cationic lipid/Example 66/DSPC/Chol 45/10/15/30 wt %
[8] = in vivo formulation E: Cationic lipid/Example 53/DSPC/Chol 45/10/15/30 wt %
[9] = in vivo formulation F: Cationic lipid/Example 54/DSPC/Chol 45/10/15/30 wt %
[10] = in vivo formulation G: Cationic lipid/Example 55/DSPC/Chol 45/10/15/30 wt %
[11] = in vivo formulation H: Cationic lipid/PEG-DMPE/DSPC/Chol 45/10/15/30 wt %
[12] = in vivo formulation J: Cationic lipid/PEG-DSPE/DSPC/Chol 45/10/15/30 wt %
[13] = in vivo formulation K: Cationic lipid/PEG-DMG/DSPC/Chol 45/10/15/30 wt %
[14] = in vivo formulation M: Cationic lipid/PEG-DSG/DSPC/Chol 45/10/15/30 wt %
[15] = in vivo formulation NN: Cationic lipid/Example 74/DSPC/Chol 45/10/15/30 wt %
[16] = in vivo formulation OO: Cationic lipid/Example 75/DSPC/Chol 45/10/15/30 wt %
[17] = in vivo formulation P: Cationic lipid/PEG-DSPE/DOPE/Chol 45/10/15/30 wt %
[18] = in vivo formulation PP: Cationic lipid/Example 73/Chol 45/10/45 wt %
[19] = in vivo formulation Q: Cationic lipid/PEG-DSPE/DOPC/Chol 45/10/15/30 wt %
[20] = in vivo formulation R: Cationic lipid/PEG-DSPE/SPC/Chol 45/10/15/30 wt %

CCCCC/C=C\C/C=C\CCCCCCCCOCC(CCN1CCCC1)OCCCCCCCC/C=C\C/C=C\CCCCC (stereo not drawn) [Example 24, 1-{3,4-bis[(9Z,12Z)-octadeca-9,12-dienyloxy]butyl}pyrrolidine]
Size [1]: 135.4 nm
% Encapsulation Efficiency [2]: 97.0%
Size [3, 4]: 96 nm
Size distribution (PDI) [3, 4]: (0.06)
Size [3, 5]: 327 nm
Size distribution (PDI) [3, 5]: (0.198)
Size [3, 6]: 141 nm
Size distribution (PDI) [3, 6]: (0.026)
Size [3, 7]: 164 nm
Size distribution (PDI) [3, 7]: (0.104)
Size [3, 8]: 169 nm
Size distribution (PDI) [3, 8]: (0.163)
Size [3, 9]: 152 nm
Size distribution (PDI) [3, 9]: (0.08)
Size [3, 10]: 164 nm
Size distribution (PDI) [3, 10]: (0.104)
Size [3, 11]: 168 nm
Size distribution (PDI) [3, 11]: (0.007)
Size [3, 12]: 119.7 nm
Size distribution (PDI) [3, 12]: (0.006)
Size [3, 13]: 155 nm
Size distribution (PDI) [3, 13]: (0.052)
Size [3, 14]: 116.5 nm
Size distribution (PDI) [3, 14]: (0.029)
Size [3, 15]: 140 nm
Size distribution (PDI) [3, 15]: (0.029)
Size [3, 16]: 142 nm
Size distribution (PDI) [3, 16]: (0.029)
Size [3, 17]: 153.7 nm
Size distribution (PDI) [3, 17]: (0.061)
Size [3, 18]: 108.7 nm
Size distribution (PDI) [3, 18]: (0.094)
Size [3, 19]: 144.1 nm
Size distribution (PDI) [3, 19]: (0.01)
Size [3, 20]: 159.6 nm
Size distribution (PDI) [3, 20]: (0.036)
